Data published in patent US4912120A, “3,5-substituted 4,5-dihydroisoxazoles as transglutaminase inhibitors” (Syntex (U.S.A.) Inc., priority 1987, dated 1990).

Experiments:
transglutaminase = conditions: prior-art inhibitors; cited from earlier work
[1] = tested on: blackhead-like lesions and whitehead-like lesions (spontaneous acne-like condition); assay: Mexican Hairless Dog Assays; type: in vivo, Mexican hairless beagle dog; conditions: two dogs
Text: To determine the utility of the compounds of Formula (I) for treating acne in mammals, one can use the procedures described by DeYoung, et al. Another model examined is the Mexican hairless beagle dog, a procedure for which is set forth in Example 10.
Gel vehicle alone was not effective.

[2] = Toxicity of the Compounds of Formula I; type: in vivo; conditions: 10 mg/Kg intraperitoneally daily for 14 days, 5 male and 5 female CDI mice per group
Description: Three groups, each composed of 5 male and 5 female CDI mice, were injected intraperitoneally with 10 mg/Kg of 5-(N-benzyloxycarbonyl-L-phenylalaninamidomethyl)-3-bromo-4,5-dihydroisoxazole or 5-(N-benzyloxycarbonyl-L-para-tyrosinamidomethyl)-3-chloro-4,5-dihydroisoxazole daily for 14 days.

psoriatic plaque = assay: Psoriatic plaque chamber test (Example 13); type: in vivo, humans; conditions: 1% w/w in propylene glycol/Carbopol 940 gel, 0.05 ml in chamber on psoriatic plaque, five subjects, applied days 1-16, readings to day 23
Description: To determine the utility of the compounds of Formula (I) for treating psoriasis in humans, the procedure of Example 13 can be followed.
5-(N-benzyloxycarbonyl-L-phenylalaninamidomethyl)-3-bromo-4,5-dihydroisoxazole was levigated into a gel vehicle (see Example 14) to afford a concentration of 1% w/w. The gel vehicle contained primarily propylene glycol which was gelled with Carbopol 940.
0.05 ml of the gel containing active ingredient was filled into a 1 mm deep teflon chamber (Durhing chamber) which was then applied to the psoriatic plaque of each of the five subjects. The plaque was then covered with Scanpor® adhesive tape. The gel was applied on days 1, 3, 5, 8, 10, 12 and 16. Each time, fresh gel, chamber, and tape were used. Readings were taken on Days 5, 10, 12, 16 and 23 (one week off therapy). The presence or absence of a normal appearing epidermis was evaluated using a scale of 0 to 2.

[3] = 2.5% in gel (40% dimethylisosorbide, 55% ethanol, 2.5% carbomer 940)
[4] = 2.5% in gel (2.5% Klucel, 10% diisopropyl adipate, 80% ethanol, 5% propylene glycol), once daily, 14 days

| SMILES | clearing of lesions [1, 3] | toxic effects [2] | clearing of lesions [1, 4] | other results |
| --- | --- | --- | --- | --- |
| NCCSSCCN [cystamine] |  |  |  | effective concentration (transglutaminase): greater than 10^-3 M; specificity for transglutaminases (transglutaminase): lacks specificity for transglutaminases |
| O=C(N[C@@H](Cc1ccc(O)cc1)C(=O)NCC1CC(Br)=NO1)OCc1ccccc1 (mixture of isomers) [5-(N-benzyloxycarbonyl-L-paratyrosinamidomethyl)-3-bromo-4,5-dihydroisoxazole] | positive results |  |  |  |
| O=C(N[C@@H](Cc1ccc(O)cc1)C(=O)NCC1CC(Cl)=NO1)OCc1ccccc1 (stereo partly drawn) [5-(N-benzyloxycarbonyl-L-para-tyrosinamidomethyl)-3-chloro-4,5-dihydroisoxazole] |  | No toxic effects |  |  |
| O=C(N[C@@H](Cc1ccccc1)C(=O)NCC1CC(Cl)=NO1)OCc1ccccc1 (mixture of isomers) [5-(N-benzyloxycarbonyl-L-phenylalaninamidomethyl)-3-chloro-4,5-dihydroisoxazole] | positive results |  | good clearing |  |
| O=C(N[C@@H](Cc1ccccc1)C(=O)NCC1CC(Br)=NO1)OCc1ccccc1 (mixture of isomers) [5-(N-benzyloxycarbonyl-L-phenylalaninamidomethyl)-3-bromo-4,5-dihydroisoxazole] | positive results | No toxic effects | clearing of the majority of blackhead-like lesions and many whitehead-like lesions | activity against psoriasis (presence or absence of normal appearing epidermis, scale of 0 to 2) (psoriatic plaque): shows activity against psoriasis |
